The record followed here is ChEMBL document CHEMBL5042471, “Development and Application of Subtype-Selective Fluorescent Antagonists for the Study of the Human Adenosine A1 Receptor in Living Cells” (J Med Chem, 2021).

Calls of active or inactive are those of the source. The rule behind the calls is not given here.

The target in assay [1] is T1, Adenosine receptor A1 (Homo sapiens, UniProt P30542).
T1 sequence (P30542 whole entry): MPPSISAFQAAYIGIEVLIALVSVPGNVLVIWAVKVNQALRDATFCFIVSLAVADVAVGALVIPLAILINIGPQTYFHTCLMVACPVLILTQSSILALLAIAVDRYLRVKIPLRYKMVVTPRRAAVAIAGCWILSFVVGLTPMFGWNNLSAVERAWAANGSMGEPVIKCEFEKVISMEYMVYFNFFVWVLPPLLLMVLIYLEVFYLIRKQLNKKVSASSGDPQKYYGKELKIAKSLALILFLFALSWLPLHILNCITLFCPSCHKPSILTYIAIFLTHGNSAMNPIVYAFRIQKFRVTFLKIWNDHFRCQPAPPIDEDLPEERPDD
Put plainly: Displacement of [3H]DPCPX from human A1 adenosine receptor expressed in Flp-In-CHO cells by radioligand competitive binding assay. It is filed as cell-based.

For assay [2], the target named is T1, Adenosine receptor A1. Put plainly: biochemical.
Description: Displacement of [3H]DPCPX from human A1 adenosine receptor expressed in CHO-K1 cells by radioligand binding assay
Assay [3] concerns the target T1, Adenosine receptor A1. Put plainly: Binding affinity to NLuc human A1 adenosine receptor expressed in HEK293-A cells in presence of 1 uM SLV320 by NanoBRET binding assay. It is filed as cell-based.
Assay [4] addresses T2, Adenosine receptor A1 (Homo sapiens) (UniProt P30542).
T2 sequence (whole entry): T1 sequence (P30542 whole entry)
Put plainly: Binding affinity to NLuc human A1 adenosine receptor expressed in HEK293-A cells assessed as maximal binding capacity in presence of 1 uM SLV320 by NanoBRET binding assay. It is filed as cell-based. The note with it: filed as antagonist.

Assay [5] has as its target T3, Adenosine receptor A2a (Homo sapiens, UniProt P29274). Put plainly: Binding affinity to NLuc human A2A adenosine receptor expressed in HEK293-A cells in presence of 1 uM ZM241385 by NanoBRET binding assay. It is filed as cell-based.
The target in assay [6] is T3, Adenosine receptor A2a. Put plainly: Binding affinity to NLuc human A2A adenosine receptor expressed in HEK293-A cells assessed as maximal binding capacity in presence of 1 uM ZM241385 by NanoBRET binding assay. The note with it: filed as antagonist. It is filed as cell-based.
The next assay deals with T4, Adenosine receptor A2b (Homo sapiens, UniProt P29275).
T4 sequence (P29275 whole entry): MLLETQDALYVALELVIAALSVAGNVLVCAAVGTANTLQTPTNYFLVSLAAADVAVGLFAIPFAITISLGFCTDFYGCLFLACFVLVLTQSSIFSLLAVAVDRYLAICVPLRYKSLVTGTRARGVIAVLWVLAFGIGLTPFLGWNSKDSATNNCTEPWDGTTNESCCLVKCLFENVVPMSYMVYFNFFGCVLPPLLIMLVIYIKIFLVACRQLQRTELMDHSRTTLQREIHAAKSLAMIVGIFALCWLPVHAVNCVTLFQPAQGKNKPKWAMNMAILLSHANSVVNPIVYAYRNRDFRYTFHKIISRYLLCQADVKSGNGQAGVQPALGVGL
Put plainly: Binding affinity to NLuc human A2B adenosine receptor expressed in HEK293-A cells in presence of 1 uM PSB603 by NanoBRET binding assay. It is filed as cell-based.

In assay [7] the target is T5, Adenosine receptor A2b (Homo sapiens) (UniProt P29275).
T5 sequence (whole entry): T4 sequence (P29275 whole entry)
Put plainly: Binding affinity to NLuc human A2B adenosine receptor expressed in HEK293-A cells assessed as maximal binding capacity in presence of 1 uM PSB603 by NanoBRET binding assay. It is filed as cell-based. The note with it: filed as antagonist.

For the next assay, the target named is T6, Adenosine receptor A3 (Homo sapiens, UniProt P0DMS8).
T6 sequence (P0DMS8 whole entry): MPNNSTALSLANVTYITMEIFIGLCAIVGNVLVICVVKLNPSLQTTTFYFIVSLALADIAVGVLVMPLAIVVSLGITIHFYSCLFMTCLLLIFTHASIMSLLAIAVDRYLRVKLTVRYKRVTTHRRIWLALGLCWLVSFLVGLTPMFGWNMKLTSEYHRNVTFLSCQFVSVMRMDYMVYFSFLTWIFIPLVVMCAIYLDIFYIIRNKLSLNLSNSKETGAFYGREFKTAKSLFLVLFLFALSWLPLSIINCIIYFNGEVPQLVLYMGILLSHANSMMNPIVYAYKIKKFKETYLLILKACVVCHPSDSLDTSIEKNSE
Put plainly: Binding affinity to NLuc human A3 adenosine receptor expressed in HEK293-A cells in presence of 1 uM MRS1220 by NanoBRET binding assay. It is filed as cell-based.

Assay [8] has as its target T7, Adenosine receptor A3 (Homo sapiens) (UniProt P0DMS8).
T7 sequence (whole entry): T6 sequence (P0DMS8 whole entry)
Put plainly: Binding affinity to NLuc human A3 adenosine receptor expressed in HEK293-A cells assessed as maximal binding capacity in presence of 1 uM MRS1220 by NanoBRET binding assay. The note with it: filed as antagonist. It is filed as cell-based.

Assay [9] addresses T2, Adenosine receptor A1 (Homo sapiens). Put plainly: Antagonist activity at human A1 adenosine receptor expressed in Flp-In-CHO cells assessed as reduction in NECA-mediated inhibition of forskolin stimulated cAMP accumulation by cAMP assay. It is filed as functional, cell-based. The following applies: filed as antagonist.
The target is the same in assay [10]. Put plainly: Binding affinity to NanoLuc-human A1 adenosine receptor expressed in HEK293-A cells assessed as binding constant (kon) by NanoBRET competitive binding assay. It is filed as cell-based. The following applies: filed as antagonist.
Assay [11] has the same target. Put plainly: Binding affinity to NanoLuc-human A1 adenosine receptor expressed in HEK293-A cells assessed as binding constant (koff) by NanoBRET competitive binding assay. It is filed as cell-based. The note with it: filed as antagonist.
In assay [12] the target is T1, Adenosine receptor A1. Put plainly: Binding affinity to NanoLuc-human A1 adenosine receptor expressed in HEK293-A cells assessed as kinetic dissociation constant by NanoBRET competitive binding assay. It is filed as cell-based.
In assay [13] the target is T2, Adenosine receptor A1 (Homo sapiens). Put plainly: Binding affinity to SNAP-tagged-human A1 adenosine receptor expressed in HEK293 cells at 5 nM after 30 mins in presence of SLV320 by confocal microscopy method. It is filed as cell-based.

T3 sequence (P29274 whole entry): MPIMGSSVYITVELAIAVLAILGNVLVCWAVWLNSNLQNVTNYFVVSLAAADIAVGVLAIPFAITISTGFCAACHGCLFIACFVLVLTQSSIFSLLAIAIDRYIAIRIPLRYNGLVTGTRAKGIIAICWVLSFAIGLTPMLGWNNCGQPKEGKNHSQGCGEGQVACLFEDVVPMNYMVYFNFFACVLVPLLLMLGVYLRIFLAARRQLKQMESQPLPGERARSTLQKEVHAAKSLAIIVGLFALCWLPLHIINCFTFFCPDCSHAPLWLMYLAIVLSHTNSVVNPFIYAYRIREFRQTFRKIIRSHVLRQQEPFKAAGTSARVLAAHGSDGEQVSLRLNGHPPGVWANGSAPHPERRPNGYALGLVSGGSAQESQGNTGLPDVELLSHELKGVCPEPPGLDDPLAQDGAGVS

On Adenosine receptor A1 [1], `CCCn1c(=O)c2[nH]c(C34CCC(CCC(=O)NCCNC(=O)COCCNC(=O)OC(C)(C)C)(CC3)CC4)nc2n(CCC)c1=O` showed a Ki of 14.8 nM.
The same measure, in the same setting: then `CCCn1c(=O)c2[nH]c(C34CCC(C(=O)NCCC(=O)NCCNC(=O)COCCNC(=O)OC(C)(C)C)(CC3)CC4)nc2n(CCC)c1=O`, with 11.2 nM.
Take `O[C@H]1CC[C@H](Nc2nc(-c3ccccc3)nc3[nH]ccc23)CC1`: the results for the Ki on Adenosine receptor A1 [1] and at Adenosine receptor A1 [2] were 1.7 nM and 1 nM, respectively.
As for `CCCn1c(=O)c2[nH]c(C34CCC(C(=O)NCCCNC(=O)COCCOCCNC(=O)OC(C)(C)C)(CC3)CC4)nc2n(CCC)c1=O`, at Adenosine receptor A1 [1], the Ki is 22.4 nM.
On the same count and under the same terms, next, `CCCn1c(=O)c2[nH]c(C34CCC(C(=O)NCCCNC(=O)COCCNC(=O)OC(C)(C)C)(CC3)CC4)nc2n(CCC)c1=O`: 16.2 nM; `CCCn1c(=O)c2[nH]c(C34CCC(C(=O)NCCNC(=O)COCCOCCNC(=O)OC(C)(C)C)(CC3)CC4)nc2n(CCC)c1=O`: 17.4 nM.
The same measure, in the same setting: next, `CCCn1c(=O)c2[nH]c(C34CCC(C(=O)NCCCNC(=O)CCNC(=O)CCNC(=O)OC(C)(C)C)(CC3)CC4)nc2n(CCC)c1=O`: 12.9 nM.
Take `CCCn1c(=O)c2[nH]c(C34CCC(C(=O)NCCNC(=O)CCNC(=O)CCNC(=O)CCCCCNC(=O)COc5ccc(/C=C/C6=[N+]7C(=Cc8ccc(-c9cccs9)n8[B-]7(F)F)C=C6)cc5)(CC3)CC4)nc2n(CCC)c1=O`: the Ki at Adenosine receptor A1 [1] is 0.288 nM. The Kd on Adenosine receptor A1 [3] was 1.17 nM; at Adenosine receptor A2a [5], 28.2 nM; at Adenosine receptor A2b, 7.76 nM; at Adenosine receptor A3, 135 nM; at Adenosine receptor A1 [12], 3.09 nM. The Bmax in assay [4] worked out at 0.018; on Adenosine receptor A2a [6], 0.035; in [7], 0.016; in [8], 0.012. For the same compound, the pKb in [9] came to 9.75. Also, the values for the K in assay [10] and in assay [11] were 17.9 10^6/M/min and 0.054 min⁻¹, respectively. For the same compound, the result in assay [13] was inactive.
The compound `CCCn1c(=O)c2[nH]c(C34CC5CC(CC(C5)C3)C4)nc2n(CCCNC(=O)c2ccc(C(=O)NCCNC(=O)CCCCCNC(=O)COc3ccc(/C=C/C4=[N+]5C(=Cc6ccc(-c7cccs7)n6[B-]5(F)F)C=C4)cc3)cc2)c1=O` showed a Ki on Adenosine receptor A1 [1] of 5.89 nM.
In the case of `CCCn1c(=O)c2[nH]c(C34CC5CC(CC(C5)C3)C4)nc2n(CCCNC(=O)c2ccc(C(=O)NCCNC(=O)CCNC(=O)CCCCC[N+]3=C(/C=C/C=C/C=C4/N(C)c5ccc(S(=O)(=O)O)cc5C4(C)C)C(C)(C)c4cc(S(=O)(=O)[O-])ccc43)cc2)c1=O`, the Ki at Adenosine receptor A1 [1] was > 10000 nM.
